From a melting point compilation (Tetko et al.; mined from patent text by program, amines drawn as free bases though some values may be those of a salt)

Row | melting point [°C] | Compound
1 | 208 | OC1CSC(Oc2cncc(-c3ccncc3Cl)c2)C(O)C1O (configuration not stated)
2 | 76 to 78 | CN(C(=O)CBr)n1cccc1C(=O)c1ccccc1
3 | 65 to 68 | COc1ccc(C2CC(=O)N(Cc3ccc4cc(F)ccc4n3)C2)cc1OC1CCCC1 (configuration not stated)
4 | 79.5 to 81 | CCCCOC(=O)CN(C(=O)C(F)(F)F)C(N1CCOCC1)P(=O)(O)OSc1ccc(Cl)cc1 (configuration not stated)
5 | 89 to 90 | Cc1cc(-c2ccc(C(F)(F)F)cc2)nc2ccnn12
6 | 188 to 189 | CSc1ccc(CC(=O)NC(NC(=NC#N)Nc2cccc3ncccc23)C(C)(C)C)cc1 (configuration not stated)
7 | 77 to 79 | O=C(OCC(F)(F)F)C(O)C(O)C(=O)OCC(F)(F)F (configuration not stated)
8 | 90 | C=CCOc1ccccc1NS(C)(=O)=O
9 | 164 to 166 | C=Cc1c(C(=O)O)nc(Cl)c(F)c1N
10 | 253 to 255 | N=C(NOC(=O)c1ccccc1)c1ccc(NC(=O)CCCC(=O)Nc2ccc(C(=N)NOC(=O)c3ccccc3)cc2)cc1
11 | 106 to 115 | O=C(NCC(O)CO)c1cc2c(Oc3ccc(Cl)cc3)cncc2s1 (configuration not stated)
12 | 235 | CNC(=NC#N)Nc1ccc(C2=NNC(=O)CC2C)cc1 (configuration not stated)
13 | 187 to 189 | COc1cc(C=C2COCC(=Cc3cc(OC)c(OC)c(OC)c3)C2=O)cc(OC)c1OC
14 | 195 to 197 | CC(=O)Nc1ccc2c(c1)CC1(OC1c1ccccc1)C2=O (configuration not stated)
15 | 75 to 80 | CS(=O)(=O)c1ccc(C(CC2CCCC2)C(=O)Nc2ccncn2)cc1Br (configuration not stated)
16 | 252 to 253 | CCN(c1cc2c3c(c1)CCCC3CCC2)c1ncc(C(=O)O)cn1
17 | 159 to 160 | COc1ccc(-c2cc3ccccc3[nH]2)cc1NC(=S)NCCNC(=O)OC(C)(C)C
18 | 145 to 148 | CCCN1C(=O)COc2cc(F)c(-n3nn[nH]c3=O)cc21
19 | 121 to 125 | O=C(NCC12CC3CC(CC(C3)C1)C2)c1cc(-c2cc(F)c(F)cc2C(=O)O)ccc1Cl
20 | 164 to 165 | O=C(NC1CCCc2ccccc21)c1ccc2cnccc2n1 (configuration not stated)
21 | 164 to 166 | CC(=O)NC(Cc1cccc(C(=O)OC(C)(C)C)c1)C(=O)OCc1ccccc1 (configuration not stated)
22 | 63 to 65 | O=C(O)CCCC=CCCc1ccc(OCc2ccccc2)cc1
23 | 137 to 138 | CCN(CC)CCC1CCN(C(=O)N2c3ccccc3C(=O)Nc3cccnc32)C1 (configuration not stated)
24 | 87 to 90 | CS(=O)(=O)c1ccc(-n2nc(C(F)(F)F)cc2-c2ccc(C#CCCCO)cc2)cc1

Row | melting point [°C] | Compound
25 | 140 to 146 | COc1ccc(C(=O)C(CC(=O)N[C@@H](Cc2ccccc2)C(=O)O)SC(C)=O)cc1F (some centres not stated)
26 | 127 to 128 | CC(C)(C)OC(=O)NCc1cccc(C(=O)O)c1
27 | 198 to 200 | Cc1c(C(=O)N2CCC[C@H](C)C2)[nH]c2ccccc12
28 | 109 to 111 | COC(=O)CN1CCC(C(=O)Oc2ccc([N+](=O)[O-])cc2)CC1
29 | 104 to 106 | COC(=O)[C@H](c1ccccc1Cl)N1CCc2sc(OC(=O)COc3ccccc3)cc2C1
30 | 143 to 145 | NC(=O)N=C1SCCN1Cc1ccccc1
31 | 156 to 158 | CC(C)n1c(NC(=O)c2ccccc2)nc2ccccc2c1=O
32 | > 250 | O=C(O)/C=C/c1ccc(-c2nc3c(=O)n(CCC4CCCCC4)c(=O)n(CCC4CCCCC4)c3[nH]2)cc1
33 | 275 | NS(=O)(=O)c1cc(NC(=O)c2cnn3c(C(F)(F)F)cc(-c4ccc(C(F)(F)F)cc4)nc23)c(Cl)s1
34 | 147 to 149 | CCc1cn(S(=O)(=O)c2ccc(C)cc2)c2cc(C(=O)Nc3c(Cl)cncc3Cl)ccc12
35 | 298 to 301 | O=C(O)c1cc(=O)c2c(O)cccc2[nH]1
36 | 143 to 146 | COc1cc(CSc2ccc(N)nn2)cc(OC)c1OC
37 | 165 to 168 | COCCNc1nc(-n2ccnc2)nc2ccc(CO)cc12
38 | > 200 | O=C1CNc2ncc(-c3cccnc3)cc2N1Cc1c(Cl)cccc1Cl
39 | 186 to 188 | CNC(=O)N1CCC(C(c2ccc(F)cc2)N(CCc2ccccc2)C(=O)NC)CC1 (configuration not stated)
40 | 144 to 146 | Cc1nn(C)c(N)c1C(=O)Nc1ccccc1C(C)C
41 | 143 to 144 | Cc1cc2c(c(C)c1O)C(C)(C)CN2C(=O)C(C)(C)C
42 | 120 to 124 | CC(C)(C)OC(=O)CCc1csc(CCNc2nc(N)c3ncn(C4OC(CO)C(O)C4O)c3n2)c1 (configuration not stated)
43 | 120 | CC(Oc1cccc(Oc2c(Cl)cc(C(F)(F)F)cc2Cl)c1)C(=O)O (configuration not stated)
44 | 123 to 124 | COc1ccc(CC(=O)NC(C)(C)C(O)c2ccccc2)cc1OC (configuration not stated)
45 | 119 to 120 | CCOC(=O)c1c(CC)nn2c(-c3cccnc3)ccnc12
46 | 225 to 226 | CC(C)Oc1c(C(=O)Nc2nnn[nH]2)sc2c1CS(=O)CC2 (configuration not stated)
47 | 233 to 234 | O=C1c2ccc([N+](=O)[O-])c3c([N+](=O)[O-])c(Br)cc(c23)C(=O)N1O
48 | 135 | CN1C(=O)C(c2ccc(OCCF)cc2)(c2ccc(F)c(-c3cccnc3F)c2)N=C1N (configuration not stated)

Row | melting point [°C] | Compound
49 | 66.5 to 67.5 | CCCCCCCCCCCCCCCCCCNC(=O)OCC1(CNS(=O)(=O)CCCI)CCCO1 (configuration not stated)
50 | 227 to 229 | COc1cc2cc(-c3ccncc3)oc2cc1OC
51 | 265 to 266 | Cn1ncc(/C=C/C(=O)Nc2ccc3c(c2)oc(=O)n3C)c1-c1ccc(F)cc1
52 | 177 to 178 | COC(=O)C(=O)c1ccc(OCCOc2cc3ccccc3cc2O)cc1
53 | 40 to 50 | Cc1cc(CCC(=O)OCC(CO)(COC(=O)CCc2cc(C)c(O)c(C(C)(C)C)c2)COC(=O)CCc2cc(C)c(O)c(C(C)(C)C)c2)cc(C(C)(C)C)c1O
54 | 257 to 259 | CNCC1CN(c2c(F)cc3c(=O)c(C(=O)O)cn(C4CC4)c3c2F)CCO1 (configuration not stated)
55 | 205 to 208 | O=C(Oc1cc(F)ccc1[N+](=O)[O-])c1cc2cc(CCl)ccc2oc1=O
56 | 125 to 127 | Cn1nc(COc2cccc3c2CN(C2CCC(=O)NC2=O)C3=O)cc1CN1CCOCC1 (configuration not stated)
57 | 165 | Cc1cc(C)c(C2CC(=O)C=C(O)C2)c(C)c1 (configuration not stated)
58 | 252 to 253 | CCn1nc(-c2ccncc2)c(C(C)=O)c(Nc2ccc(C(=O)O)cc2)c1=O
59 | 161 to 162 | CCCCCCCCCCCCCC(=O)Nc1ccc(Cl)c(NC2=NN(c3c(Cl)cc(Cl)cc3Cl)C(=O)C2SCCc2ccccc2)c1 (configuration not stated)
60 | 220 | C#CCOc1ccc(OC)cc1-c1nc2ncccc2[nH]1
61 | 181 to 182 | CN(c1ccc(CC(=O)O)cc1)c1cc(C(C)(C)C)c(O)c(C(C)(C)C)c1
62 | 197 to 198 | Cc1cc(C=NNC(N)=S)ncc1NO
63 | 150 to 151 | CC(C)(C)c1ccc(C(CCCN2CCC(=NO)CC2)OC2CCCCO2)cc1 (configuration not stated)
64 | 105 to 108 | Nc1cnccc1CNC(=O)C1Cc2ccccc2N1S(=O)(=O)c1ccc(-c2cccc(C(F)(F)F)c2)cc1 (configuration not stated)
65 | 174 to 176 | O=c1cc2c(nn1-c1ccc(Cl)cc1)-c1ncccc1CC2
66 | 118 | O=[N+]([O-])c1ccc(Br)c(SC(F)(F)F)c1
67 | 262 to 263 | O=Cc1ccc2c(c1)C1(c3ccccc3-2)c2ccccc2-c2ccc(CO)cc21 (configuration not stated)
68 | 137 to 139 | CC(C)C1NC(=O)CN1C(=O)CNC(=O)OCc1ccccc1 (configuration not stated)
69 | 137 to 139 | c1ccc(C(OC2CCN(c3ccc4ncnn4n3)CC2)c2ccccc2)cc1
70 | 92 to 93 | CCOC(=O)c1cc(OC)ccc1CCc1cc2cc(C#N)ccc2o1
71 | 204 | CSc1nc(-n2cnc([N+](=O)[O-])n2)c2cc(Br)ccc2n1
72 | 233 to 235 | CCOC(=O)c1c(C2CCNCC2)[nH]c(-c2cccc(C(F)(F)F)c2)c1-c1ccncc1

Row | melting point [°C] | Compound
73 | 158 to 164 | COc1ccc(-c2ccc3c(Cl)c(OC)ccc3c2)cc1
74 | 69 to 71 | COC(=O)C1CC1c1ccc(O)cc1 (configuration not stated)
75 | 110 to 112 | COC(=O)C(C)(C)OCc1cc2cc(Cl)ccc2n1S(=O)(=O)c1cc(C)cc(C)c1
76 | 183 to 184 | O=C(Nc1ccc(C(F)(F)F)cc1)C1=NN(c2cccc(Cl)c2)C(c2ccccc2)CC1 (configuration not stated)
77 | 113 to 114 | CCCCC(=O)SCC(Cc1ccccc1)C(=O)Nc1cccc(C(=O)O)c1C (configuration not stated)
78 | 68 to 70 | c1ccc(C(Oc2ccncc2)c2ccccc2)cc1
79 | 196 | OC1CSC(Oc2cncc(-c3cncnc3)c2)C(O)C1O (configuration not stated)
80 | 147 to 149 | O=C1N(CC2COCCO2)c2ccccc2C12COc1cc3c(cc12)OCO3 (configuration not stated)
81 | 130 to 135 | COc1ccccc1NC(=O)Nc1nc(Nc2ccccc2-c2ccccc2)nc(N2CCC(C(=O)O)CC2)n1
82 | 147 to 151 | CC1CC2Oc3ccc(Cl)cc3C(=O)N2O1 (configuration not stated)
83 | 97 to 99 | Cc1ccc(C(Cn2cncn2)=NOCc2c(Cl)cccc2Cl)c(Cl)c1
84 | 199 to 203 | CCC1C(=O)c2c(cc(OCC(=O)O)c(Cl)c2Cl)C1c1ccccc1 (configuration not stated)
85 | 112 | C=CCOC(=O)N1CCCC(OC)C1CC(=O)Cn1cnc2cc(Br)c(Cl)cc2c1=O (configuration not stated)
86 | 223 | NC1=Nc2ccc(Cl)cc2C2CCCC12F (configuration not stated)
87 | 164 to 165 | Nc1ccccc1CS(=O)c1nc2ccccc2[nH]1 (configuration not stated)
88 | > 290 | O=P(O)(O)C(O)(Cc1c[nH]cn1)P(=O)(O)O
89 | 144 to 145 | CCOc1ccc(-c2nc(-c3cc(C(=O)OC)c4oc(C)cc4c3)cs2)cc1OCC
90 | 135 | Cc1c([N+](=O)[O-])ccc2c1SC1(Cl)C=C(C(F)(F)F)C=C(Cl)C1O2 (configuration not stated)
91 | 240 to 243 | CC(C)NCCCS(=O)(=O)O
92 | 59 to 60 | CCCCCCCCC(=O)N1C(=O)CCC1=O
93 | > 250 | CC1COCC(C)N1c1ccc(-c2nc(C(=O)Nc3nccs3)c(-c3ccc(Cl)cc3)[nH]2)cc1 (configuration not stated)
94 | 166 to 172 | NC(=O)c1cc(OCCNCC(O)c2ccccc2)ccc1O (configuration not stated)

Row | Compound | melting point [°C]
95 | Cc1nsc(OCC(Cl)(Cl)Cl)c1S(=O)(=O)Cl | 71 to 74
96 | COC(=O)C1(c2ccc([N+](=O)[O-])cc2)CO1 (configuration not stated) | 78 to 82
97 | C=CCN(CC=C)Cc1nc(-c2ncn3c2CN(C)C(=O)c2c(Cl)cccc2-3)no1 | 126 to 130
